Literature values in article PMC3591511 (Expert reviews in molecular medicine, 2012).

Legend:
[1] = tested on: p53-MDM2 complex
[2] = target: IL-2/IL-2Rα; conditions: antagonist of IL-2/IL-2α receptor interaction; ref [53]

CC(C)(C)C[C@H]1N[C@@H](C(=O)NCC[C@H](O)CO)[C@H](c2cccc(Cl)c2)[C@@]12C(=O)Nc1cc(Cl)c(F)cc12.Cl [MI-219]
inhibition of complex formation ([1]; p53-MDM2, ref [58]): ~ 5 nM

COc1ccc(C2=N[C@@H](c3ccc(Cl)cc3)[C@@H](c3ccc(Cl)cc3)N2C(=O)N2CCNC(=O)C2)c(OC(C)C)c1 [Nutlin-3]
activity towards the p53-MDM2 complex ([1]; mid-nanomolar, enantioselective, ref [56]): ~ 70 nM

CC(C)C[C@@H](N=C(N)N)C(=O)NCC(=O)N1CCC(c2cc(-c3ccc(OCc4ccc(C(=O)O)o4)c(Cl)c3Cl)nn2C)CC1 [SP4206]
Ki [2]: 0.06 µM
